Values after ≈ are worked out from the molar mass of the structure shown.

What all share (assay type): functional
In test [1] the test system is Nakaseomyces glabratus. Briefly: Antifungal activity against Clinical isolate Candida glabrata assessed as inhibition of visible growth.
Test [2] relates to Candida tropicalis. Briefly: Antifungal activity against Candida tropicalis CGMCC 2.3739 assessed as inhibition of visible growth.
Test [3] concerns Pichia kudriavzevii. Briefly: Antifungal activity against Candida krusei AS 2.1045 assessed as inhibition of visible growth.
In test [4] the test system is Cryptococcus neoformans. Briefly: Antifungal activity against Cryptococcus neoformans CGMCC 2.3161 assessed as inhibition of visible growth.
In test [5] the test system is Candida albicans. In words: Antifungal activity against Candida albicans CPCC 400616 assessed as inhibition of visible growth.
Test [6] has as its system Candida albicans. In words: Antifungal activity against Candida albicans SC 5314 assessed as inhibition of visible growth.
The subject of test [7] is Candida parapsilosis. Briefly: Antifungal activity against Candida parapsilosis GIM 2.190 assessed as inhibition of visible growth. The settings on record: Lodderomyces parapsilosis.
The test system of test [8] is Aspergillus fumigatus. In words: Antifungal activity against Aspergillus fumigatus CGMCC 3.7795 assessed as inhibition of visible growth.

On to `CN(Cc1nc(-c2ccc(C(F)(F)F)cc2)cs1)CC(O)(Cn1cncn1)c1ccc(F)cc1F` (stereo not drawn), for which the MIC80 – broadly, the lowest concentration that inhibits either 80% of growth or 80% of the strains tested, depending on the study – in test [1] was 3.2 µg/mL (≈ 6.28 µM); in test [2] it was 0.025 µg/mL (≈ 0.0491 µM); in test [3], 0.8 µg/mL (≈ 1.57 µM); in test [4], 0.2 µg/mL (≈ 0.393 µM); in test [5], 0.025 µg/mL (≈ 0.0491 µM); in test [6], 0.012 µg/mL (≈ 0.0236 µM). The MIC80 in test [7] came to 0.012 µg/mL (≈ 0.0236 µM).

On to `[2H]C([2H])([2H])N(Cc1ccc(-c2ccc(Cl)cc2)cc1)[C@H](C)[C@](O)(Cn1cncn1)c1ccc(F)cc1F`, for which the MIC80 in test [1] came to 0.012 µg/mL (≈ 0.0247 µM); in test [2] it was 0.006 µg/mL (≈ 0.0123 µM); in test [3], 0.012 µg/mL (≈ 0.0247 µM); in test [4] it was 0.006 µg/mL (≈ 0.0123 µM); in test [5] it was 0.006 µg/mL (≈ 0.0123 µM); in test [6], 0.006 µg/mL (≈ 0.0123 µM). For the same compound, the MIC80 in test [7] is 0.006 µg/mL (≈ 0.0123 µM); in test [8], 0.025 µg/mL (≈ 0.0514 µM).

For the compound `CN(Cc1ccc(-c2ccc(OC(F)(F)F)cc2)cn1)CC(O)(Cn1cncn1)c1ccc(F)cc1F` (stereo not drawn), the MIC80 was found to be 0.05 µg/mL (≈ 0.0963 µM) in test [1]; 0.012 µg/mL (≈ 0.0231 µM) in test [2]; 0.025 µg/mL (≈ 0.0481 µM) in test [3]; 0.025 µg/mL (≈ 0.0481 µM) in test [4]; 0.012 µg/mL (≈ 0.0231 µM) in test [5]; 0.012 µg/mL (≈ 0.0231 µM) in test [6]. The MIC80 in test [7] is 0.006 µg/mL (≈ 0.0116 µM).

As to `[2H]C([2H])([2H])N(Cc1ccc(-c2ccc(OC(F)(F)F)cc2)cc1F)[C@H](C)[C@](O)(Cn1cncn1)c1ccc(F)cc1F`, the MIC80 in test [1] was found to be 0.025 µg/mL (≈ 0.0452 µM); in test [2], 0.012 µg/mL (≈ 0.0217 µM); in test [3], 0.05 µg/mL (≈ 0.0903 µM); in test [4], 0.025 µg/mL (≈ 0.0452 µM); in test [5], 0.012 µg/mL (≈ 0.0217 µM); in test [6], 0.012 µg/mL (≈ 0.0217 µM). Further, the MIC80 in test [7] was found to be 0.012 µg/mL (≈ 0.0217 µM); in test [8], 0.05 µg/mL (≈ 0.0903 µM).

For the compound `CN(Cc1ccc(-c2cccc(Cl)c2)cn1)CC(O)(Cn1cncn1)c1ccc(F)cc1F` (stereo not drawn), the MIC80 in test [1] was found to be 0.2 µg/mL (≈ 0.426 µM); in test [2], 0.012 µg/mL (≈ 0.0255 µM); in test [3] it was 0.1 µg/mL (≈ 0.213 µM); in test [4], 0.025 µg/mL (≈ 0.0532 µM); in test [5] it was 0.012 µg/mL (≈ 0.0255 µM); in test [6] it was 0.012 µg/mL (≈ 0.0255 µM). Besides, the MIC80 in test [7] amounted to 0.012 µg/mL (≈ 0.0255 µM).

Turning to `CN(Cc1ccc(-c2ccc(OC(F)(F)F)cc2)o1)CC(O)(Cn1cncn1)c1ccc(F)cc1F` (stereo not drawn), the MIC80 in test [1] amounted to 0.1 µg/mL (≈ 0.197 µM); in test [2] it was 0.012 µg/mL (≈ 0.0236 µM); in test [3], 0.1 µg/mL (≈ 0.197 µM); in test [4], 0.2 µg/mL (≈ 0.393 µM); in test [5], 0.012 µg/mL (≈ 0.0236 µM); in test [6], 0.025 µg/mL (≈ 0.0492 µM). Besides, the MIC80 in test [7] amounted to 0.05 µg/mL (≈ 0.0983 µM).

For `Cc1ccc(-c2ccc(CN(C)CC(O)(Cn3cncn3)c3ccc(F)cc3F)nc2)cc1` (stereo not drawn), the MIC80 in test [1] came to 1.6 µg/mL (≈ 3.56 µM); in test [2], 0.012 µg/mL (≈ 0.0267 µM); in test [3], 0.2 µg/mL (≈ 0.445 µM); in test [4], 0.8 µg/mL (≈ 1.78 µM); in test [5], 0.012 µg/mL (≈ 0.0267 µM); in test [6], 0.25 µg/mL (≈ 0.556 µM). In addition, the MIC80 in test [7] stood at 0.1 µg/mL (≈ 0.222 µM).

With `CN(Cc1ccc(-c2ccc(Cl)cc2F)cc1)CC(O)(Cn1cncn1)c1ccc(F)cc1F` (stereo not drawn), the MIC80 in test [1] is 0.025 µg/mL (≈ 0.0513 µM); in test [2], 0.006 µg/mL (≈ 0.0123 µM); in test [3] it was 0.012 µg/mL (≈ 0.0246 µM); in test [4] it was 0.012 µg/mL (≈ 0.0246 µM); in test [5] it was 0.006 µg/mL (≈ 0.0123 µM); in test [6], 0.006 µg/mL (≈ 0.0123 µM). For the same compound, in test [7], the MIC80 came out at 0.006 µg/mL (≈ 0.0123 µM).

Take `CCc1ccc(-c2ccc(CN(C)CC(O)(Cn3cncn3)c3ccc(F)cc3F)nc2)cc1` (stereo not drawn): the MIC80 was 0.1 µg/mL (≈ 0.216 µM) in test [1]; 0.012 µg/mL (≈ 0.0259 µM) in test [2]; 0.05 µg/mL (≈ 0.108 µM) in test [3]; 0.025 µg/mL (≈ 0.0539 µM) in test [4]; 0.012 µg/mL (≈ 0.0259 µM) in test [5]; 0.025 µg/mL (≈ 0.0539 µM) in test [6]. The MIC80 in test [7] was 0.012 µg/mL (≈ 0.0259 µM).

Regarding `CN(Cc1ccc(-c2ccc(OC(F)(F)F)cc2)s1)CC(O)(Cn1cncn1)c1ccc(F)cc1F` (stereo not drawn), the MIC80 stood at 0.1 µg/mL (≈ 0.191 µM) in test [1]; 0.006 µg/mL (≈ 0.0114 µM) in test [2]; 0.05 µg/mL (≈ 0.0953 µM) in test [3]; 0.05 µg/mL (≈ 0.0953 µM) in test [4]; 0.012 µg/mL (≈ 0.0229 µM) in test [5]; 0.006 µg/mL (≈ 0.0114 µM) in test [6]. Also, the MIC80 in test [7] was 0.006 µg/mL (≈ 0.0114 µM).

For the compound `CN(Cc1ccc(-c2ccc(Cl)c(F)c2)cc1)CC(O)(Cn1cncn1)c1ccc(F)cc1F` (stereo not drawn), the MIC80 in test [1] amounted to 0.025 µg/mL (≈ 0.0513 µM); in test [2], 0.006 µg/mL (≈ 0.0123 µM); in test [3], 0.012 µg/mL (≈ 0.0246 µM); in test [4] it was 0.012 µg/mL (≈ 0.0246 µM); in test [5] it was 0.006 µg/mL (≈ 0.0123 µM); in test [6], 0.006 µg/mL (≈ 0.0123 µM). Further, the MIC80 in test [7] was found to be 0.006 µg/mL (≈ 0.0123 µM).

For the compound `CN(Cc1ccc(-c2ccc(C(F)(F)F)cc2)s1)CC(O)(Cn1cncn1)c1ccc(F)cc1F` (stereo not drawn), the MIC80 in test [1] is 0.4 µg/mL (≈ 0.787 µM); in test [2] it was 0.006 µg/mL (≈ 0.0118 µM); in test [3] it was 0.1 µg/mL (≈ 0.197 µM); in test [4] it was 0.1 µg/mL (≈ 0.197 µM); in test [5], 0.006 µg/mL (≈ 0.0118 µM); in test [6] it was 0.012 µg/mL (≈ 0.0236 µM). Besides, the MIC80 in test [7] was 0.006 µg/mL (≈ 0.0118 µM).

For `C[C@@H](N(C)Cc1ccc(-c2ccc(Cl)cc2)cc1)[C@](O)(Cn1cncn1)c1ccc(F)cc1F`, the MIC80 in test [1] worked out at 0.012 µg/mL (≈ 0.0248 µM); in test [2], 0.006 µg/mL (≈ 0.0124 µM); in test [3] it was 0.012 µg/mL (≈ 0.0248 µM); in test [4] it was 0.012 µg/mL (≈ 0.0248 µM); in test [5], 0.006 µg/mL (≈ 0.0124 µM); in test [6], 0.006 µg/mL (≈ 0.0124 µM). Besides, the MIC80 in test [7] is 0.006 µg/mL (≈ 0.0124 µM).
